According to ChEMBL document CHEMBL4616624, “STAT3 inhibitory activity of naphthoquinones isolated from Tabebuia avellanedae” (Bioorg Med Chem, 2020):
Active and inactive are the calls of the source. The rule behind the calls is not given here.

How the values were obtained:
[1] = system: MDA-MB-231; test: Cytotoxicity against human MDA-MB-231 cells assessed as reduction in cell proliferation measured after 72 hrs by WST8 assay; assay type: functional, cell-based; settings: MDA-MB-231, 72 h
[2] = system: MCF7; test: Cytotoxicity against human MCF7 cells assessed as reduction in cell proliferation measured after 72 hrs by WST8 assay; assay type: functional, cell-based; settings: MCF7, 72 h
[3] = system: A549; test: Cytotoxicity against human A549 cells assessed as reduction in cell proliferation measured after 72 hrs by WST8 assay; assay type: functional, cell-based; settings: A549, 72 h
[4] = molecular target: T1, Signal transducer and activator of transcription 3 (Homo sapiens, UniProt P40763); test: Inhibition of IL-6 induced STAT3 phosphorylation at Tyr705 residue in human MCF7 cells preincubated for 1 hr followed by IL-6 stimulation and measured after 1 hr by Western blot analysis; assay type: cell-based
[5] = molecular target: T1, Signal transducer and activator of transcription 3; test: Inhibition of IL-6 induced STAT3 phosphorylation at Tyr705 residue in human MCF7 cells assessed as phosphorylation intensity level at 0.5 uM preincubated for 1 hr followed by IL-6 stimulation and measured after 1 hr by Western blot analysis; assay type: cell-based; design: scale not given: the % may be the effect or the level left
[6] = system: MCF7; test: Effect on total STAT3 level in IL-6 induced human MCF7 cells at 0.5 to 4 uM preincubated for 1 hr followed by IL-6 stimulation and measured after 1 hr by Western blot analysis; assay type: ADME, cell-based; settings: mcf7, 1 h
[7] = molecular target: T1, Signal transducer and activator of transcription 3; test: Inhibition of IL-6 induced STAT3 phosphorylation at Tyr705 residue in human MCF7 cells assessed as phosphorylation intensity level at 1 uM preincubated for 1 hr followed by IL-6 stimulation and measured after 1 hr by Western blot analysis; assay type: cell-based; design: scale not given: the % may be the effect or the level left
[8] = molecular target: T1, Signal transducer and activator of transcription 3; test: Inhibition of IL-6 induced STAT3 phosphorylation at Tyr705 residue in human MCF7 cells assessed as phosphorylation intensity level at 2 uM preincubated for 1 hr followed by IL-6 stimulation and measured after 1 hr by Western blot analysis; assay type: cell-based; design: scale not given: the % may be the effect or the level left
[9] = molecular target: T1, Signal transducer and activator of transcription 3; test: Inhibition of IL-6 induced STAT3 phosphorylation at Tyr705 residue in human MCF7 cells assessed as phosphorylation intensity level at 4 uM preincubated for 1 hr followed by IL-6 stimulation and measured after 1 hr by Western blot analysis; assay type: cell-based; design: scale not given: the % may be the effect or the level left
[10] = molecular target: T1, Signal transducer and activator of transcription 3; test: Inhibition of IL-6 induced STAT3 phosphorylation at Tyr705 residue in human MCF7 cells at 1 uM preincubated for 1 hr followed by IL-6 stimulation and measured after 1 hr by Western blot analysis relative to control; assay type: cell-based
[11] = molecular target: T1, Signal transducer and activator of transcription 3; test: Inhibition of IL-6 induced STAT3 phosphorylation at Tyr705 residue in human MCF7 cells at 10 uM preincubated for 1 hr followed by IL-6 stimulation and measured after 1 hr by Western blot analysis relative to control; assay type: cell-based
[12] = system: MDA-MB-231; test: Inhibition of JAK/STAT signaling in human MDA-MB-231 cells assessed as decrease in STAT3 phosphorylation incubated for 2 hrs by Western blot analysis; assay type: cell-based
[13] = molecular target: Tyrosine-protein kinase JAK1 (Homo sapiens) (UniProt P23458); test: Inhibition of human recombinant N-terminal GST-tagged JAK1 (850 to 1154 residue) expressed in baculovirus expression system at 100 uM using JAK1 peptide as substrate by mobility shift assay relative to control
[14] = molecular target: Tyrosine-protein kinase JAK2 (Homo sapiens) (UniProt O60674); test: Inhibition of human recombinant N-terminal His-tagged JAK2 (826 to 1132 residue) expressed in baculovirus expression system at 100 uM using Srctide as substrate by mobility shift assay relative to control
[15] = molecular target: T2, Tyrosine-protein kinase JAK3 (Homo sapiens) (UniProt P52333); test: Inhibition of human recombinant N-terminal His-tagged JAK3 (795 to 1124 residue) expressed in baculovirus infected Sf21 insect cells up to 100 uM using Srctide as substrate by mobility shift assay
T2 sequence (whole entry): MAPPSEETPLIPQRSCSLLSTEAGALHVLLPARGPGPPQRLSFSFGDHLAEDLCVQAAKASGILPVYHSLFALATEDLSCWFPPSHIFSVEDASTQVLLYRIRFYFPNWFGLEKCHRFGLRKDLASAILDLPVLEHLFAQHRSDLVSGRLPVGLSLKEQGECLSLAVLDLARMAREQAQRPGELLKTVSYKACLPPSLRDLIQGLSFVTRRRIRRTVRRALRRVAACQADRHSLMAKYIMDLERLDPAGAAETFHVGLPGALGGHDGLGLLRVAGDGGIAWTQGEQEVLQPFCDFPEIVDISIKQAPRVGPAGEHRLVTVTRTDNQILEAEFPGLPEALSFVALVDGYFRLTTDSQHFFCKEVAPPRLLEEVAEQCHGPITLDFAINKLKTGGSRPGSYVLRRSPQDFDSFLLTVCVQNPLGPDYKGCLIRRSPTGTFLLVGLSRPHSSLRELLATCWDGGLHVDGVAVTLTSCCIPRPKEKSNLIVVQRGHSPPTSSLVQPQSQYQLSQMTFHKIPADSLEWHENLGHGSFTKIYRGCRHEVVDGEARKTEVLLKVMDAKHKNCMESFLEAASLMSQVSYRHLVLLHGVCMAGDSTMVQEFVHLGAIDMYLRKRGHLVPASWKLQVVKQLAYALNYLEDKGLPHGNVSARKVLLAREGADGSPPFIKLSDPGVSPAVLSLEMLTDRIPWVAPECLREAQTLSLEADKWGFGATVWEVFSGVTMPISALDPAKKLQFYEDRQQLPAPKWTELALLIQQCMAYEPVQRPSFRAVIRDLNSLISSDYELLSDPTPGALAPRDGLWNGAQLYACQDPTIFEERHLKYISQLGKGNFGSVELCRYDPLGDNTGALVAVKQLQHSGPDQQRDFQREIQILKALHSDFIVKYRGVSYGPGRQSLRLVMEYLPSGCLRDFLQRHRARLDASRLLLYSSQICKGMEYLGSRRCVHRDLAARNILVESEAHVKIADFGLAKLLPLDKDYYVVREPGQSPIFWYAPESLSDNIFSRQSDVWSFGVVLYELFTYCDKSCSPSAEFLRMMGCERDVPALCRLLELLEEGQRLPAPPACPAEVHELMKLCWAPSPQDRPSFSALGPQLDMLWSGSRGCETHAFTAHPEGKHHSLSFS

[16] = system: MDA-MB-231; test: Inhibition of JAK/STAT signaling in human MDA-MB-231 cells assessed as decrease in STAT3 phosphorylation by measuring phosphorylated intensity level at 0.5 uM incubated for 2 hrs by Western blot analysis (reference value: 100%); assay type: cell-based; design: scale not given: the % may be the effect or the level left
[17] = system: MDA-MB-231; test: Inhibition of JAK/STAT signaling in human MDA-MB-231 cells assessed as decrease in STAT3 phosphorylation by measuring phosphorylated intensity level at 1 uM incubated for 2 hrs by Western blot analysis (reference value: 100%); assay type: cell-based; design: scale not given: the % may be the effect or the level left
[18] = system: MDA-MB-231; test: Inhibition of JAK/STAT signaling in human MDA-MB-231 cells assessed as decrease in STAT3 phosphorylation by measuring phosphorylated intensity level at 2 uM incubated for 2 hrs by Western blot analysis (reference value: 100%); assay type: cell-based; design: scale not given: the % may be the effect or the level left
[19] = system: MDA-MB-231; test: Inhibition of JAK/STAT signaling in human MDA-MB-231 cells assessed as decrease in STAT3 phosphorylation by measuring phosphorylated intensity level at 4 uM incubated for 2 hrs by Western blot analysis (reference value: 100%); assay type: cell-based; design: scale not given: the % may be the effect or the level left
[20] = molecular target: T1, Signal transducer and activator of transcription 3; test: Inhibition of FAM-G(py)LPQTV-NH2 binding to GST-tagged STAT3-SH2 domain (unknown origin) preincubated for 15 mins followed by FAM-G(py)LPQTV-NH2 addition and measured after 30 mins by TR-FRET assay
[21] = molecular target: T3, Signal transducer and activator of transcription 1-alpha/beta (Homo sapiens) (UniProt P42224); test: Inhibition of FAM-G(py)DKPHVL-NH2 binding to GST-tagged STAT1-SH2 domain (unknown origin) preincubated for 15 mins followed by FAM-G(py)DKPHVL-NH2 addition and measured after 30 mins by TR-FRET assay
T3 sequence (whole entry): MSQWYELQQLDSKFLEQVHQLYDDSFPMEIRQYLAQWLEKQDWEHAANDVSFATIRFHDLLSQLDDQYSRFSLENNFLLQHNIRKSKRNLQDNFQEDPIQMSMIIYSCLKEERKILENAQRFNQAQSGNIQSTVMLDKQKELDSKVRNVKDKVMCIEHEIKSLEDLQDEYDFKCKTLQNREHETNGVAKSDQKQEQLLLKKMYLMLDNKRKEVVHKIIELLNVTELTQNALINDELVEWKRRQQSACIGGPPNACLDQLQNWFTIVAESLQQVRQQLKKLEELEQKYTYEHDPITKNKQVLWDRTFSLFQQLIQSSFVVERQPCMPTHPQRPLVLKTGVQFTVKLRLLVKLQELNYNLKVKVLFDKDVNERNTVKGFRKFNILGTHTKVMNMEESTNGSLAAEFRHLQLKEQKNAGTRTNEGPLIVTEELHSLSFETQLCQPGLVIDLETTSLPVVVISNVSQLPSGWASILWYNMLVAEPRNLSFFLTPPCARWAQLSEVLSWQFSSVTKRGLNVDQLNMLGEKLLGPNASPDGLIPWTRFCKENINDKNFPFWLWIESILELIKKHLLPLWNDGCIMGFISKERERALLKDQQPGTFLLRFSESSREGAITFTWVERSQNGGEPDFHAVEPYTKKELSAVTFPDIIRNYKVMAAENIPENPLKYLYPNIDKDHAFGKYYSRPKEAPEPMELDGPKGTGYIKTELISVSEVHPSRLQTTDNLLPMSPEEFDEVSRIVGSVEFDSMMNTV

[22] = molecular target: Tyrosine-protein kinase JAK2 (Homo sapiens) (UniProt O60674); test: Inhibition of IL-6 induced JAK2 phosphorylation at Tyr1007/1008 residue in human MCF7 cells preincubated for 1 hr followed by IL-6 stimulation and measured after 1 hr by Western blot analysis; assay type: cell-based

T1 sequence (P40763 whole entry): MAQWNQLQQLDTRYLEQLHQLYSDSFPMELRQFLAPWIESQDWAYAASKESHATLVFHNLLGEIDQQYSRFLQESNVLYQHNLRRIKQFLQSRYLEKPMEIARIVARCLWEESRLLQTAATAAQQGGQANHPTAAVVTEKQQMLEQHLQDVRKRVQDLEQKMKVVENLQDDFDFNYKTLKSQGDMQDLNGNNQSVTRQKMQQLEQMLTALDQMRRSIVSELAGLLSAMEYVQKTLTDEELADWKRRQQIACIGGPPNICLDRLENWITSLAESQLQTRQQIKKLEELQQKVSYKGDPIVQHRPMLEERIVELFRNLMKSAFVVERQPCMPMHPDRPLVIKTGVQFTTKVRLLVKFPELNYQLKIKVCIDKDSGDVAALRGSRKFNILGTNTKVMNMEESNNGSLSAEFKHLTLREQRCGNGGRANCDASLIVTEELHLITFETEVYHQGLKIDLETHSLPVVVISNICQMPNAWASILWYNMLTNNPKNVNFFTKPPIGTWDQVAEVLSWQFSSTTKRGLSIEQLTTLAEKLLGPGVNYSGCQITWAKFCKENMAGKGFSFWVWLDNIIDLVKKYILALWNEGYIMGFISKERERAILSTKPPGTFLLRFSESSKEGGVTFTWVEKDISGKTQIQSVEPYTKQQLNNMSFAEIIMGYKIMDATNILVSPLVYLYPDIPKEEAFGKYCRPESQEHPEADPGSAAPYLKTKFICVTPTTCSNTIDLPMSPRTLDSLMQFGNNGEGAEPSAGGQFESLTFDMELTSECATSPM
Chain of Tyrosine-protein kinase JAK2 (Homo sapiens) (O60674 whole entry): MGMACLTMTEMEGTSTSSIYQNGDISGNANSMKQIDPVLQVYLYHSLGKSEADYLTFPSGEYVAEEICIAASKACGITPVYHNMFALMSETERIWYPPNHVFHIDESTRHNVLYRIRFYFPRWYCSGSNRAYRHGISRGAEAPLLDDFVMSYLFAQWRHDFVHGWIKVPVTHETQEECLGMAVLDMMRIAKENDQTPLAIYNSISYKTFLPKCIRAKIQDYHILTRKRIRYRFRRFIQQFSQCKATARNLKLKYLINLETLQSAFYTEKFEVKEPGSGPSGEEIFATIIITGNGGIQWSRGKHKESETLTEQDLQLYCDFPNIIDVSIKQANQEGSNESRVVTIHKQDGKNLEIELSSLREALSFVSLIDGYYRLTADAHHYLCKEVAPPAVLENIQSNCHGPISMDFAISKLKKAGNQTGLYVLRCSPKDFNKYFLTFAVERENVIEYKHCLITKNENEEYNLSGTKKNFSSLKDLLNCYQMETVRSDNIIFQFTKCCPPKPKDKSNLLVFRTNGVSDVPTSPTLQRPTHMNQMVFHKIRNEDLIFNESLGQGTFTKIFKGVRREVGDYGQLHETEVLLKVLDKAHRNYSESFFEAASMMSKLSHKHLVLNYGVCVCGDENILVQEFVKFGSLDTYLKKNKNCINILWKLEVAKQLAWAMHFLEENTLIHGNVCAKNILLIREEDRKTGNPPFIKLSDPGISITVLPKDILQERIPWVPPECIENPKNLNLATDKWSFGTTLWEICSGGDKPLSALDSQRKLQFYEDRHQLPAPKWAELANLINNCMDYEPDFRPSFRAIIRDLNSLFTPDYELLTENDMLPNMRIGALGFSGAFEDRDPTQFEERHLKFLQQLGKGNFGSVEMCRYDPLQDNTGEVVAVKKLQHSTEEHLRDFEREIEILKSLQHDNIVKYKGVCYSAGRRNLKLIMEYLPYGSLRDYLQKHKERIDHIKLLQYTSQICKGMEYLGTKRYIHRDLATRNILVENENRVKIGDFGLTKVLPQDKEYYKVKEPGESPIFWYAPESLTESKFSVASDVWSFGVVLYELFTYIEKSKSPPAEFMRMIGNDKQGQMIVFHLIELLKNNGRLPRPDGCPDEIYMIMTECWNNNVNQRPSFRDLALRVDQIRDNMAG
Chain of Tyrosine-protein kinase JAK1 (Homo sapiens) (P23458 whole entry): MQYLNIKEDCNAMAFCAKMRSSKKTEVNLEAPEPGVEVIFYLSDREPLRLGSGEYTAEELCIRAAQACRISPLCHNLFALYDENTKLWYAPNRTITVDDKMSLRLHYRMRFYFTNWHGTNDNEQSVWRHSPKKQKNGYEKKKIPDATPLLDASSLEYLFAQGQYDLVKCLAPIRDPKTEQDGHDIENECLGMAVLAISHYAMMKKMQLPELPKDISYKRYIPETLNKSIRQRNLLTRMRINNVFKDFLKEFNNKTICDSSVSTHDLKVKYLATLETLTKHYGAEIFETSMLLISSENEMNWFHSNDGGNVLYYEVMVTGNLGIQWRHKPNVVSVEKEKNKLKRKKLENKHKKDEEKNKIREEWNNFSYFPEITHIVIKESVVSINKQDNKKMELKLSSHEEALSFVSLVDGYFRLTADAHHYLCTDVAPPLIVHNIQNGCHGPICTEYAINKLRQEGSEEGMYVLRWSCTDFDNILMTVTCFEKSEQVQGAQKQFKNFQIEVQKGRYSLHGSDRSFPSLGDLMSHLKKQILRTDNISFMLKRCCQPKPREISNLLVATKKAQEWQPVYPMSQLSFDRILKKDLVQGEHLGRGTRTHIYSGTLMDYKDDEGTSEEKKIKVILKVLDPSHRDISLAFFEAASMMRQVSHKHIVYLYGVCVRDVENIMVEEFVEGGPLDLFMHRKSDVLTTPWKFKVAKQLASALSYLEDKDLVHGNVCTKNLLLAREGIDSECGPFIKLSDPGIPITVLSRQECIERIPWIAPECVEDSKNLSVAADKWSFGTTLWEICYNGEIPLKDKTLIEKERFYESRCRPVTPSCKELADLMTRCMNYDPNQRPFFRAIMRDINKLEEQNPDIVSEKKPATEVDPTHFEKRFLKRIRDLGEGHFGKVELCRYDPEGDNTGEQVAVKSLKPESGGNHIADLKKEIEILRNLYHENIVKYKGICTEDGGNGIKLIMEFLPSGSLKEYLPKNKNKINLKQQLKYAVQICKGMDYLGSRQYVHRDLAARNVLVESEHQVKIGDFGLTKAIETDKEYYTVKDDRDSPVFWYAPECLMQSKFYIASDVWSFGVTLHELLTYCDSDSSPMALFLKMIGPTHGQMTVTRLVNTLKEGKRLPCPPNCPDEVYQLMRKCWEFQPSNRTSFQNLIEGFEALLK

Structure (SMILES)	Activity [5]	Activity [7]	Activity [8]	Activity [9]	inhibition [10]	inhibition [11]	IC50 [1]	IC50 [2]	IC50 [3]	Activity [6]	also measured
CC(=O)c1cc2c(o1)C(=O)c1cccc(O)c1C2=O	107%	84%	38%	23%			170 nM	51 nM	44 nM	Non-Toxic	IC50 [4]: 2000 nM
CC(C)=CCC1=C(O)C(=O)c2ccccc2C1=O [LAPACHOL]					inactive	inactive	> 30000 nM	> 30000 nM	> 30000 nM		
CC(=O)c1cc2c(o1)C(=O)c1ccccc1C2=O [NAPABUCASIN]							250 nM	240 nM	120 nM	Non-Toxic	inhibition [12]: Dose-dependent effect; inhibition [13]: 95.5%; inhibition [14]: 84.7%; inhibition [15]: inactive; Activity [16]: 111%; Activity [17]: 107%; Activity [18]: 48%; Activity [19]: 28%
C[C@H](O)c1cc2c(o1)C(=O)c1cccc(O)c1C2=O	76%	75%	43%	3%	Active	100%	410 nM	500 nM	130 nM	Non-Toxic	inhibition [12]: Dose-dependent effect; inhibition [13]: 94.8%; inhibition [14]: 80.6%; inhibition [20]: inactive; inhibition [21]: inactive; inhibition [15]: inactive; IC50 [4]: 2000 nM; inhibition [22]: Dose-dependent effect; Activity [16]: 68%; Activity [17]: 78%; Activity [18]: 21%; Activity [19]: 35%
C[C@H](O)c1cc2c(o1)C(=O)c1c(O)cccc1C2=O					Active	100%	330 nM	1110 nM	280 nM		

More lines, main results first:

Activity [5]	Activity [7]	Activity [8]	Activity [9]	inhibition [10]	inhibition [11]	Structure (SMILES)	IC50 [1]	IC50 [2]	IC50 [3]	Activity [6]	also measured
				inactive	inactive	CC1(C)CCC2=C(O1)c1ccccc1C(=O)C2=O [LAPACHONE]	1390 nM	710 nM	1960 nM		
36%	23%	20%	35%			C[C@H](O)c1cc2c(o1)C(=O)c1ccccc1C2=O	1590 nM	280 nM	720 nM	Non-Toxic	
				inactive	inactive	CC1(C)CCC2=C(O1)C(=O)c1ccccc1C2=O [ALPHA-LAPACHONE]	> 30000 nM	> 30000 nM	> 30000 nM		
